Data reported in patent US12202829B2, “Heterocyclic compound” (FIMECS, Inc., priority 2018, dated 2025).
Counter-ions that a name gives are not always drawn.

Molecular target: T1, human XIAP_BIR3 domain purified protein (Homo sapiens, UniProt P98170)
T1 construct: purchased R & D
Experiment: XIAP binding inhibitory activity, HTRF method with b-Smac ligand
Details: for IC50: second symbol of the cell, read-out: XIAP binding 50% inhibitory concentration (IC50 value); for inhibition at 3 µM: test compound 3 μM, first symbol of the cell, read-out: XIAP binding inhibition rate when the concentration of the test compound is 3 μM
Outline: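 HTRF competition: human XIAP BIR3 and C-terminally biotinylated Smac peptide AVPIAQK, each diluted to 90 nM before addition, in HEPES pH 7.5 buffer with NaCl, BSA, Triton X-100. Eu-cryptate anti-His/streptavidin-XL665 detection after ≥4 h at room temperature; inhibition % from 665/615 ratio versus no-compound control.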

T1 sequence (P98170 252-356 limits assumed): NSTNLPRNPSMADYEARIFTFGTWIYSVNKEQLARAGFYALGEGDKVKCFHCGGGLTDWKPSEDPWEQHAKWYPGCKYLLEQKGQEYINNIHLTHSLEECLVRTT

Row | IC50 [nM] | inhibition at 3 µM [%] | Compound
1 | < 300 |  | CN[C@@H](C)C(=O)N[C@H](C(=O)N1CCN(C(=O)c2ccc3c(c2)cc(C)n3CCOCCOCCO)CC1)C1CCCCC1 [Example 69, (S)—N—((S)-1-Cyclohexyl-2-(4-(1-(2-(2-(2-hydroxyethoxy)ethoxy)ethyl)-2-methyl-1H-indole-5-carbonyl)piperazine-1-yl)-2-oxoethyl)-2-(methylamino)propanamide]
2 | 300 to 3000 |  | CN[C@@H](C)C(=O)N[C@H](C(=O)N1CCN(C(=O)c2ccc3c(c2)cc(C)n3CCOCCOCCOCCO)CC1)C1CCCCC1 [Example 70, (S)—N—((S)-1-Cyclohexyl-2-(4-(1-(2-(2-(2-(2-hydroxyethoxy)ethoxy)ethoxy)ethyl)-2-methyl-1H-indole-5-carbonyl)piperazin-1-yl)-2-oxoethyl)-2-(methylamino)propanamide]
3 |  | > 75 | CN[C@@H](C)C(=O)N[C@H](C(=O)N1CCN(C(=O)c2ccc3c(c2)c(F)c(C)n3CCOCCOCCO)CC1)C1CCCCC1 [Example 71, (S)—N—((S)-1-Cyclohexyl-2-(4-(3-fluoro-1-(2-(2-(2-hydroxyethoxy)ethoxy)ethyl)-2-methyl-1H-indole-5-carbonyl)piperazin-1-yl)-2-oxoethyl)-2-(methylamino)propanamide]
4 | < 300 |  | CN[C@@H](C)C(=O)N[C@H](C(=O)N1CCN(C(=O)c2c(C(=O)NCCOCCOCCNC(=O)C[C@@H]3N=C(c4ccc(Cl)cc4)c4c(sc(C)c4C)-n4c(C)nnc43)c3ccc(OC)cc3n2C)CC1)C1CCCCC1 [Example 72, N-(2-(2-(2-(2-((S)-4-(4-Chlorophenyl)-2,3,9-trimethyl-6H-thieno[3,2-f][1,2,4]triazolo[4,3-a][1,4]diazepin-6-yl)acetamido)ethoxy)ethoxy)ethyl)-2-(4-((S)-2-cyclohexyl-2-((S)-2-(methylamino)propanamido)acetyl)piperazine-1-carbonyl)-6-methoxy-1-methyl-1H-indole-3-carboxamide Hydrochloride]
5 | < 300 |  | CN[C@@H](C)C(=O)N[C@H](C(=O)N1CCN(C(=O)c2c(C(=O)NCCOCCOCCOCCNC(=O)C[C@@H]3N=C(c4ccc(Cl)cc4)c4c(sc(C)c4C)-n4c(C)nnc43)c3ccc(OC)cc3n2C)CC1)C1CCCCC1 [Example 73, N-(1-((S)-4-(4-chlorophenyl)-2,3,9-trimethyl-6H-thieno[3,2-f][1,2,4]triazolo[4,3-a][1,4]diazepin-6-yl)-2-oxo-6,9,12-trioxa-3-azatetradecan-14-yl)-2-(4-((S)-2-cyclohexyl-2-((S)-2-(methylamino)propanamido)acetyl)piperazine-1-carbonyl)-6-methoxy-1-methyl-1H-indole-3-carboxamide]
6 |  | 25 to 50 | CN[C@@H](C)C(=O)N[C@H](C(=O)N1CCN(C(=O)c2c(C(=O)NCCOCCOCCOCCNC(=O)C[C@@H]3N=C(c4ccc(Cl)cc4)c4c(sc(C)c4C)-n4c(C)nnc43)c3cc(F)c(F)cc3n2C)CC1)C1CCCCC1 [Example 74, N-(1-((S)-4-(4-chlorophenyl)-2,3,9-trimethyl-6H-thieno[3,2-f][1,2,4]triazolo[4,3-a][1,4]diazepin-6-yl)-2-oxo-6,9,12-trioxa-3-azatetradecan-14-yl)-2-(4-((S)-2-cyclohexyl-2-((S)-2-(methylamino)propanamido)acetyl)piperazine-1-carbonyl)-5,6-difluoro-1-methyl-1H-indole-3-carboxamide]
7 |  | > 25 | CN[C@@H](C)C(=O)N[C@H](C(=O)N1CCN(C(=O)c2cc3cc(F)ccc3n2CC(=O)NCCOCCNC(=O)C[C@@H]2N=C(c3ccc(Cl)cc3)c3c(sc(C)c3C)-n3c(C)nnc32)CC1)C1CCCCC1 [Example 75, (S)-N-((S)-2-(4-(1-(2-((2-(2-(2-((S)-4-(4-chlorophenyl)-2,3,9-trimethyl-6H-thieno[3,2-f][1,2,4]triazolo[4,3-a][1,4]diazepin-6-yl)acetamido)ethoxy)ethyl)amino)-2-oxoethyl)-5-fluoro-1H-indole-2-carbonyl)piperazin-1-yl)-1-cyclohexyl-2-oxoethyl)-2-(methylamino)propanamide]
8 |  | > 25 | CN[C@@H](C)C(=O)N[C@H](C(=O)N1CCN(C(=O)c2cc3cc(F)ccc3n2CC(=O)NCCOCCOCCNC(=O)C[C@@H]2N=C(c3ccc(Cl)cc3)c3c(sc(C)c3C)-n3c(C)nnc32)CC1)C1CCCCC1 [Example 76, (S)-N-((S)-2-(4-(1-(14-((S)-4-(4-chlorophenyl)-2,3,9-trimethyl-6H-thieno[3,2-f][1,2,4]triazolo[4,3-a][1,4]diazepin-6-yl)-2,13-dioxo-6,9-dioxa-3,12-diazatetradecyl)-5-fluoro-1H-indole-2-carbonyl)piperazin-1-yl)-1-cyclohexyl-2-oxoethyl)-2-(methylamino)propanamide]
9 |  | > 25 | CN[C@@H](C)C(=O)N[C@H](C(=O)N1CCN(C(=O)c2cc3cc(F)ccc3n2CC(=O)NCCOCCOCCOCCNC(=O)C[C@@H]2N=C(c3ccc(Cl)cc3)c3c(sc(C)c3C)-n3c(C)nnc32)CC1)C1CCCCC1 [Example 77, (S)-N-((S)-2-(4-(1-(17-((S)-4-(4-chlorophenyl)-2,3,9-trimethyl-6H-thieno[3,2-f][1,2,4]triazolo[4,3-a][1,4]diazepin-6-yl)-2,16-dioxo-6,9,12-trioxa-3,15-diazaheptadecyl)-5-fluoro-1H-indole-2-carbonyl)piperazin-1-yl)-1-cyclohexyl-2-oxoethyl)-2-(methylamino)propanamide]
10 | 300 to 3000 |  | CN[C@@H](C)C(=O)N[C@H](C(=O)N1CCN(C(=O)c2c(C(=O)NCCOCCOCCOc3ccc(NC(=O)C[C@@H]4N=C(c5ccc(Cl)cc5)c5c(sc(C)c5C)-n5c(C)nnc54)cc3)c3cc(F)c(F)cc3n2C)CC1)C1CCCCC1 [Example 78, N-(2-(2-(2-(4-(2-((S)-4-(4-Chlorophenyl)-2,3,9-trimethyl-6H-thieno[3,2-f][1,2,4]triazolo[4,3-a][1,4]diazepin-6-yl)acetamido)phenoxy)ethoxy)ethoxy)ethyl)-2-(4-((S)-2-cyclohexyl-2-((S)-2-(methylamino)propanamido)acetyl)piperazine-1-carbonyl)-5,6-difluoro-1-methyl-1H-indole-3-carboxamide hydrochloride]
11 | 300 to 3000 |  | CN[C@@H](C)C(=O)N[C@H](C(=O)N1CCN(C(=O)c2c(C(=O)NCCOCCOCCOCCOc3ccc(NC(=O)C[C@@H]4N=C(c5ccc(Cl)cc5)c5c(sc(C)c5C)-n5c(C)nnc54)cc3)c3cc(F)c(F)cc3n2C)CC1)C1CCCCC1 [Example 79, N-(2-(2-(2-(2-(4-(2-((S)-4-(4-chlorophenyl)-2,3,9-trimethyl-6H-thieno[3,2-f][1,2,4]triazolo[4,3-a][1,4]diazepin-6-yl)acetamido)phenoxy)ethoxy)ethoxy)ethoxy)ethyl)-2-(4-((S)-2-cyclohexyl-2-((S)-2-(methylamino)propanamido)acetyl)piperazine-1-carbonyl)-5,6-difluoro-1-methyl-1H-indole-3-carboxamide]
12 | 300 to 3000 |  | CN[C@@H](C)C(=O)N[C@H](C(=O)N1CCN(C(=O)c2c(C(=O)NCCOCCOCCOCCN3CCN(c4cc(Nc5ncc(C(=O)Nc6c(C)cccc6Cl)s5)nc(C)n4)CC3)c3cc(F)c(F)cc3n2C)CC1)C1CCCCC1 [Example 82, N-(2-Chloro-6-methylphenyl)-2-((6-(4-(1-(2-(4-((S)-2-cyclohexyl-2-((S)-2-(methylamino)propanamido)acetyl)piperazine-1-carbonyl)-5,6-difluoro-1-methyl-1H-indol-3-yl)-1-oxo-5,8,11-trioxa-2-azatridecan-13-yl)piperazin-1-yl)-2-methylpyrimidin-4-yl)amino)thiazole-5-carboxamide Trifluoroacetate]
13 | 3000 to 30000 |  | Cc1nc(Nc2ncc(C(=O)Nc3c(C)cccc3Cl)s2)cc(N2CCN(CCOCCOCCOC[C@H]3CN[C@H](C)CN3CC(=O)N3CCN(C(=O)c4cc5cc(F)c(F)cc5n4C)C[C@H]3C)CC2)n1 [Example 83, N-(2-chloro-6-methylphenyl)-2-((6-(4-(2-(2-(2-(((2R,5R)-1-(2-((R)-4-(5,6-difluoro-1-methyl-1H-indole-2-carbonyl)-2-methylpiperazin-1-yl)-2-oxoethyl)-5-methylpiperazin-2-yl)methoxy)ethoxy)ethoxy)ethyl)piperazin-1-yl)-2-methylpyrimidin-4-yl)amino)thiazole-5-carboxamide]
14 |  | 50 to 75 | CN[C@@H](C)C(=O)N[C@H](C(=O)N1CCN(C(=O)c2c(C(=O)NCCOCCOCCOCC(=O)N3CCN(c4cc(Nc5ncc(C(=O)Nc6c(C)cccc6Cl)s5)nc(C)n4)CC3)c3cc(F)ccc3n2C)CC1)C1CCCCC1 [Example 84, N-(2-chloro-6-methylphenyl)-2-((6-(4-(1-(2-(4-((S)-2-cyclohexyl-2-((S)-2-(methylamino)propanamido)acetyl)piperazine-1-carbonyl)-5-fluoro-1-methyl-1H-indol-3-yl)-1-oxo-5,8,11-trioxa-2-azatridecan-13-oyl)piperazin-1-yl)-2-methylpyrimidin-4-yl)amino)thiazole-5-carboxamide]
15 |  | 50 to 75 | CN[C@@H](C)C(=O)N[C@H](C(=O)N1CCN(C(=O)c2c(C(=O)NCCOCCOCC(=O)N3CCN(c4cc(Nc5ncc(C(=O)Nc6c(C)cccc6Cl)s5)nc(C)n4)CC3)c3cc(F)ccc3n2C)CC1)C1CCCCC1 [Example 85, N-(2-chloro-6-methylphenyl)-2-((6-(4-(2-(2-(2-(2-(4-((S)-2-cyclohexyl-2-((S)-2-(methylamino)propanamido)acetyl)piperazine-1-carbonyl)-5-fluoro-1-methyl-1H-indole-3-carboxamido)ethoxy)ethoxy)acetyl)piperazin-1-yl)-2-methylpyrimidin-4-yl)amino)thiazole-5-carboxamide]
